From US11773075B2, “Modulators of p97 AAA ATPase activity” (University of Pittsburgh—Of the Commonwealth System of …, priority 2017, dated 2023)

Legend:
p97 = p97 (Homo sapiens, UniProt P55072); assay: BioMol Green ATPase assay; format: biochemical; settings: 200 μM ATP, read-out: P97 Biomolgreen
From the text: Biomol Green (Enzo) is a […] from a biochemical reaction. Because of its high sensitivity, the assay is suitable for monitoring enzyme activities at very early substrate conversions requiring very low amount of enzymes. […] The assay procedure used may be the same as in Zhang et al., “Altered cofactor regulation with disease-associated p97/VCP mutations,” Proc. Natl. Acad. Sci. USA, 112(14), E1705-E1714 (2015).
The BioMol Green ATPase assay procedure used was that which was disclosed in Zhang, et al., “Altered cofactor regulation with disease-associated p97/VCP mutations,” Proc. Natl. Acad. Sci. USA, 112(14), E1705-E1714 (2015). The following Table IV provides relevant results. The compound number correlates to the numbered compounds in Table III. Compounds also show activity in a cell-based assay such as the ubiquitin assay (assay as described in, e.g., (1) Dantuma et al., “Short-lived green fluorescent proteins for quantifying ubiquitin/proteasome-dependent proteolysis in living cells,” Nat. Biotechnol. 2000, 18, 538-543; and (2) WO 2010003908).

Chain of p97 (P55072 whole entry): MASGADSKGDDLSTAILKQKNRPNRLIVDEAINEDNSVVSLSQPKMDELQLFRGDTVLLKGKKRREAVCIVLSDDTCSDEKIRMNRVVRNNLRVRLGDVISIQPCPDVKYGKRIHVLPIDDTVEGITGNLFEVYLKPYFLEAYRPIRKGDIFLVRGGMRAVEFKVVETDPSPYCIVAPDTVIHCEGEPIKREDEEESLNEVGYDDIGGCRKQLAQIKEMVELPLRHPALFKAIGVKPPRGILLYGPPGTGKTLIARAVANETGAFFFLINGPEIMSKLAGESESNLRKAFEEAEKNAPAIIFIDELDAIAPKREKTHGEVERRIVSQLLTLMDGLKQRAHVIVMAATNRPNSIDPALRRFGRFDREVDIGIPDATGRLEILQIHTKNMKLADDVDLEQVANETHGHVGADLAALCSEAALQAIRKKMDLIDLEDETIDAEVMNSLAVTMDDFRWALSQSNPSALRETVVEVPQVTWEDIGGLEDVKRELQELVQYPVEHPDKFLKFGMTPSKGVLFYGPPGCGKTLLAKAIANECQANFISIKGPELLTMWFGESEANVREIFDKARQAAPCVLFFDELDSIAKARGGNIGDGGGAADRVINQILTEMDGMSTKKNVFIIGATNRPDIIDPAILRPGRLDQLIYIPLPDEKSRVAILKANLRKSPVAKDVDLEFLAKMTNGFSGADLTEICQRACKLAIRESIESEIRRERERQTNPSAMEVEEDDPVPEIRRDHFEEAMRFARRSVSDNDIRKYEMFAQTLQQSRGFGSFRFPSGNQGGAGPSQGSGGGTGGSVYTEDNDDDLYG

| Structure (SMILES) | IC50 (p97) | melting point |
| --- | --- | --- |
| Cc1cc(OCc2cnc(SC3C=CCCC3)n2-c2cccnc2)ccc1C#CCO (stereo not shown) [Compound 1, 3-(4-((2-(Cyclohex-2-en-1-ylthio)-1-(pyridin-3-yl)-1H-imidazol-5-yl)methoxy)-2-methylphenyl)prop-2-yn-1-ol] | 37 nM | – |
| Cc1cc(OCc2cnc(SC3C=CCCC3)n2-c2cccnc2)ccc1C#CCOC(=O)NC1CCOCC1 (stereo not shown) [Compound 2] | 34 nM | – |
| COCCNC(=O)OCC#Cc1ccc(OCc2cnc(SC3C=CCCC3)n2-c2cccnc2)cc1C (stereo not shown) [Compound 3] | 39 nM | – |
| Cc1cc(OCc2cnc(SC3C=CCCC3)n2-c2cccnc2)ccc1C#CCOC(=O)NCCN1CCOCC1 (stereo not shown) [Compound 4] | 36 nM | – |
| Cc1cc(OCc2cnc(SC(C)C)n2-c2cccnc2)ccc1C#CCOC(=O)NCCN1CCN(C(C)C)CC1 [Compound 5] | 100 nM | – |
| COCOCC#Cc1ccc(OCc2cnc(SC3C=CCCC3)n2-c2cccnc2)cc1C (stereo not shown) [Compound 6] | 100 nM | – |
| COCCOCC#Cc1ccc(OCc2cnc(SC3C=CCCC3)n2-c2cccnc2)cc1C (stereo not shown) [Compound 7] | 110 nM | – |
| CC(=O)NCC#Cc1ccc(OCc2cnc(SC3C=CCCC3)n2-c2cccnc2)cc1C (stereo not shown) [Compound 8, N-(3-(4-((2-(Cyclohex-2-en-1-ylthio)-1-(pyridin-3-yl)-1H-imidazol-5-yl)methoxy)-2-methylphenyl)-prop-2-yn-1-yl)acetamide] | 60 nM | – |
| Cc1cc(OCc2cnc(SC3C=CCCC3)n2-c2cccnc2)ccc1C#CCNC1CCN(C)CC1 (stereo not shown) [Compound 9, N-(3-(4-((2-(cyclohex-2-en-1-ylthio)-1-(pyridin-3-yl)-1H-imidazol-5-yl)methoxy)-2-methylphenyl)prop-2-yn-1-yl)-1-methylpiperidin-4-amine] | 56 nM | – |
| Cc1cc(OCc2cnc(SC3C=CCCC3)n2-c2cccnc2)ccc1C#CCNCCN(C)C (stereo not shown) [Compound 10] | 50 nM | – |
| Cc1cc(OCc2cnc(SC3C=CCCC3)n2-c2cccnc2)ccc1C#CCOC(=O)NCCN1CCN(C)CC1 (stereo not shown) [Compound 11] | 20 nM | – |
| Cc1cc(OCc2c(Br)nc(SC3C=CCCC3)n2-c2cccnc2)ccc1C#CCO (stereo not shown) [Compound 12] | 50 nM | – |
| Cc1cc(OCc2c(Br)nc(SC3C=CCCC3)n2-c2cccnc2)ccc1C#CCOC(=O)NCCN1CCN(C(C)C)CC1 (stereo not shown) [Compound 13] | 32 nM | – |
| Cc1cc(OCc2cnc(SC3C=CCCC3)n2-c2cccnc2)ccc1C#CCOC(=O)NC(C)C (stereo not shown) [Compound 14] | 27 nM | – |
| Cc1cc(OCc2cnc(SC3C=CCCC3)n2-c2cccnc2)ccc1C#CCOC(=O)NC1CCN(C)CC1 (stereo not shown) [Compound 15] | 14 nM | – |
| CCS(=O)(=O)c1ncc(COc2ccc(C#CCO)c(C)c2)n1-c1cccnc1 [Compound 16, 3-(4-((2-(Ethylsulfonyl)-1-(pyridin-3-yl)-1H-imidazol-5-yl)methoxy)-2-methylphenyl)prop-2-yn-1-ol] | > 6700 nM | – |
| Cc1cc(OCc2cnc(SC3CC3)n2-c2cccnc2)ccc1C#CCO [Compound 17] | 240 nM | – |
| Cc1cc(OCc2c(Cl)nc(SC3C=CCCC3)n2-c2cccnc2)ccc1C#CCO (stereo not shown) [Compound 18] | 34 nM | – |
| Cc1cc(OCc2c(Br)nc(SC3CC3)n2-c2cccnc2)ccc1C#CCOC(=O)N1CCN(C(C)C)CC1 [Compound 19] | 57 nM | – |
| [2H]C1([2H])C([2H])([2H])C([2H])([2H])C([2H])(Sc2nc(Br)c(COc3ccc(C#CCO)c(C)c3)n2-c2cccnc2)C1([2H])[2H] [Compound 20] | 29 nM | – |
| [2H]C1([2H])C([2H])([2H])C([2H])([2H])C([2H])(Sc2nc(Br)c(COc3ccc(C#CCOC(=O)NCCN4CCN(C(C)C)CC4)c(C)c3)n2-c2cccnc2)C1([2H])[2H] [Compound 21] | 17 nM | – |
| Cc1cc(OCc2c(C#N)nc(SC3CCCC3)n2-c2cccnc2)ccc1C#CCO [Compound 22] | 60 nM | – |
| Cc1cc(OCc2c(C#CCO)nc(SC3CCCC3)n2-c2cccnc2)ccc1C#CCO [Compound 23, 3-(4-((2-(Cyclopentylthio)-4-(3-hydroxyprop-1-yn-1-yl)-1-(pyridin-3-yl)-1H-imidazol-5-yl)methoxy)-2-methylphenyl)prop-2-yn-1-ol] | 30 nM | – |
| [2H]C1([2H])C([2H])([2H])C([2H])([2H])C([2H])(Sc2ncc(COc3cc(F)c(C#CCOC(=O)NC4CCN(C)CC4)cc3F)n2-c2cccnc2)C1([2H])[2H] [Compound 35] | 8 nM | – |

Results, then the compound that gave them:

| IC50 (p97) | melting point | Structure (SMILES) |
| --- | --- | --- |
| 50 nM | – | CCOC(=O)c1nc(SC2CCCC2)n(-c2cccnc2)c1COc1ccc(C#CCO)c(C)c1 [Compound 24] |
| 50 nM | – | Cc1cc(OCc2c(C(N)=O)nc(SC3CCCC3)n2-c2cccnc2)ccc1C#CCO [Compound 25] |
| 50 nM | – | Cc1cc(OCc2cnc(CC3CCCC3)n2-c2cccnc2)ccc1C#CCOC(=O)NC1CCN(C)CC1 [Compound 26] |
| 110 nM | – | COC(=O)/C=C/c1nc(SC2CCCC2)n(-c2cccnc2)c1COc1ccc(C#CCO)c(C)c1 [Compound 27, Methyl (E)-3-(2-(cyclopentylthio)-5-((4-(3-hydroxyprop-1-yn-1-yl)-3-methylphenoxy)methyl)-1-(pyridin-3-yl)-1H-imidazol-4-yl)acrylate] |
| 250 nM | 119 to 121 °C | Cc1cc(OCc2c(C(C)(C)O)nc(SC3CCCC3)n2-c2cccnc2)ccc1C#CCO [Compound 28, 3-(4-((2-(Cyclopentylthio)-4-(2-hydroxypropan-2-yl)-1-(pyridin-3-yl)-1H-imidazol-5-yl)methoxy)-2-methylphenyl)prop-2-yn-1-ol] |
| 75 nM | – | [2H]C1([2H])C([2H])([2H])C([2H])([2H])C([2H])(Sc2ncc(COc3ccc(-c4ccc(S(C)(=O)=O)cc4)c(C)c3)n2-c2cccnc2)C1([2H])[2H] [Compound 29] |
| 66 nM | – | Cc1cc(OCc2c(Br)nc(SC3C=CCCC3)n2-c2cccnc2)ccc1-c1ccc(S(C)(=O)=O)cc1 (stereo not shown) [Compound 30] |
| 54 nM | – | Cc1cc(OCc2cnc(SC3C=CCCC3)n2-c2cccnc2)ccc1-c1ccc(S(C)(=O)=O)cc1 (stereo not shown) [Compound 31] |
| 37 nM | – | Cc1cc(OCc2c(Cl)nc(SC3C=CCCC3)n2-c2cccnc2)ccc1-c1ccc(S(C)(=O)=O)cc1 (stereo not shown) [Compound 32] |
| 130 nM | – | Fc1cc(OCc2cnc(SC3C=CCCC3)n2-c2cccnc2)ccc1Br (stereo not shown) [Compound 33] |
| 160 nM | – | Cc1cc(OCc2cnc(SC3C=CCCC3)n2-c2cccnc2)ccc1Cl (stereo not shown) [Compound 34] |
| 11 nM | – | CN1CCC(NC(=O)OCC#Cc2cc(F)c(OCc3cnc(SC4C=CCCC4)n3-c3cccnc3)cc2F)CC1 (stereo not shown) [Compound 36] |
| 17 nM | – | [2H]C1([2H])C([2H])([2H])C([2H])([2H])C([2H])(Sc2ncc(COc3ccc(C#CCOC(=O)NC4CCN(C)CC4)c(F)c3)n2-c2cccnc2)C1([2H])[2H] [Compound 37, 3-(4-((2-((Cyclopentyl-d9)thio)-1-(pyridin-3-yl)-1H-imidazol-5-yl)methoxy)-2-fluorophenyl)prop-2-yn-1-yl (1-methylpiperidin-4-yl)carbamate] |
| 19 nM | – | [2H]C1([2H])C([2H])([2H])C([2H])([2H])C([2H])(Sc2ncc(COc3cc(F)c(C#CCO)cc3F)n2-c2cccnc2)C1([2H])[2H] [Compound 38] |
| 19 nM | – | [2H]C1([2H])C([2H])([2H])C([2H])([2H])C([2H])(Sc2ncc(COc3cc(F)c(C#CCOC(=O)NC4CCN(C)CC4)c(F)c3)n2-c2cccnc2)C1([2H])[2H] [Compound 39] |
| 20 nM | – | CC#Cc1nc(SC2CCCC2)n(-c2cccnc2)c1COc1cc(F)c(C#CCOC(=O)NC2CCN(C)CC2)c(F)c1 [Compound 40] |
| 40 nM | – | CC#Cc1nc(SC2CCCC2)n(-c2cccnc2)c1COc1cc(F)c(C#CCO)c(F)c1 [Compound 41] |
| 46 nM | – | OCC#Cc1c(F)cc(OCc2c(Cl)nc(SC3C=CCCC3)n2-c2cccnc2)cc1F (stereo not shown) [Compound 42] |
| 56 nM | – | [2H]C1([2H])C([2H])([2H])C([2H])([2H])C([2H])(Sc2ncc(COc3cc(F)c(C#CCO)c(F)c3)n2-c2cccnc2)C1([2H])[2H] [Compound 43] |
| 60 nM | – | [2H]C1([2H])C([2H])([2H])C([2H])([2H])C([2H])(Sc2ncc(COc3cc(Cl)c(C#CCOC(=O)NC4CCN(C)CC4)cc3Cl)n2-c2cccnc2)C1([2H])[2H] [Compound 44] |
| 200 nM | – | [2H]C1([2H])C([2H])([2H])C([2H])([2H])C([2H])(Sc2ncc(COc3cc(Cl)c(C#CCO)cc3Cl)n2-c2cccnc2)C1([2H])[2H] [Compound 45] |
